Patent publication US6500827B2, “Drug combinations” (Pharmacia & Upjohn Company, priority 1998, dated 2002)

Assays:
tolerability and safety = settings: in vivo
Experimental: It is more commonly provided in dosages of from 1 to 20 mg per patient per day. […] Other adverse reactions are possible. […] Both compounds may be administered by any suitable method including a convenient oral dosage form. A preferred method is oral dosing twice a day.

dopamine uptake = system: dopamine uptake
From the text: (§1) Leonard-BE, “Noradrenaline in basic models of depression.” European-Neuropsychopharnacol. April 1997; 7 Suppl 1: S11-6; discussion S71-3.

monoamine oxidase (MAO) = system: monoamine oxidase (MAO)
From the text: as §1

norepinephrine uptake = settings: compared with classical tricyclic antidepressants
From the text: as §1

serotonin uptake = system: serotonin uptake
From the text: as §1

[1] = system: muscarinic cholinergic receptors; test: interaction with muscarinic cholinergic receptors; assay type: binding
I-adrenerigic receptors = test: interaction with I-adrenerigic receptors; assay type: binding
[2] = system: patients with a DSM-III-R diagnosis of Obsessive Compulsive Disorder; test: trial in patients with Obsessive Compulsive Disorder; assay type: in vivo, human; settings: of 10 OCD patients, 6 mg first week then 8 mg, 3 to 4 weeks
From the text: This study is provided to illustrate the usefulness of using reboxetine as a treatment for OCD and the invention described herein should not be considered limited by this example.

8-OH-DPAT hypothermia = settings: in vivo; cited from earlier work

Structure (SMILES): CC(C)NCC(O)COc1cccc2[nH]ccc12 (stereo not drawn) [Pindolol, 1-(1H-Indol-4-yloxy)-3-[(1-methylethyl)amino]-2-propanol]
- tolerability / safety (tolerability and safety): fairly safe

Structure (SMILES): CCOc1ccccc1OC(c1ccccc1)C1CNCCO1 (stereo not drawn) [reboxetine]
- dopamine uptake inhibitory activity (dopamine uptake): no dopamine uptake inhibitory activity
- monoamine oxidase (MAO) inhibitory activity (monoamine oxidase (MAO)): devoid
- inhibition of the reuptake of noradrenaline (norepinephrine uptake): inhibitory properties of classical tricyclic antidepressants
- serotonin uptake inhibitory activity (serotonin uptake): only marginal
- interaction with muscarinic cholinergic receptors [1]: without showing any appreciable interaction
- interaction with I-adrenerigic receptors (I-adrenerigic receptors): without showing any appreciable interaction
- patients judged minimally improved at CGI last assessment [2]: 2
- patients judged much improved at CGI last assessment [2]: 4
- patients judged very much improved at CGI last assessment [2]: one
- patients unchanged at CGI last assessment [2]: 3
- effect in the 8-OH-DPAT hypothermia test (8-OH-DPAT hypothermia): ineffective
